Source: patent US7820106B2, “Sensor platform, apparatus incorporating the platform and process using the platform” (Novartis AG, priority 1999, dated 2010)
Where a name gives a salt, the structure may show the parent alone. {Cy5} = Cy5 fluorescent dye label

Tests used:
[1] = system: CYP 450 1A1 (rat); assay: Gene expression analysis on ER chip: CYP 450 induction in rat liver; settings: rat liver cDNA, 80 mg/kg daily on 4 consecutive days, normalized treated/control, mean of 10 replicates
Method: (§1) Sensor platforms (dimensions 18×18 mm^2) of the type described with reference to FIG. 2 wee first sonicated twice in chloroform (FLUKA, “purriss.”) and subsequently twice in isopropanol (Merck, “Uvasol”); each for 15 min. The platform were then dried in vacuum and cleaned in a UV cleaner for 30 min (Boeckel industries Inc, model 135500). O-xylene was heated to 75° C. (stirring) and 2% v/v 3-glycidoxypropyl trimethoxysilane (Fluka, “purum”) as well as 0.2% v/v N-ethyldiisopropylamine (Fluka, “purum”) were added to the heated solvent (stirring). The platforms were mounted into racks and then incubated for 7 h in the solution at 75° C. (stirring). Subsequently, the platforms were sonicated three times in fresh acetonitrile (Fluka, “HPLC grade”), each for 15 min. The platforms were then sonicated in a solution of 2% v/v 3-amino-1-propanol (Fluka, “purum”) in acetonitrile for 15 min and then incubated in the same solution over night at room temperature (stirring). Next day, the platforms were first sonicated three times for 15 min in fresh isopropanol (Fluka, “HPLC grade”) and then three times for 15 min in flesh methanol (Merck, “Uvasol”). Finally, the platforms were dried and stored in vacuum. b) Immobilization of Recognition Elements Arrays consisting of 10 different cDNAs (each cDNA 10 replicates: CYP 450 1A1, CYP 450 2B1 EST., CYP 450 2B1, CYP 450 2B2, CYP 450 3A1 human, CYP 450 3A2, CYP 450 4A1, β-actin, GAPDH, external standard) were printed on the platforms with an ink-jet printer (Microdrop GmbH, Norderstedt, Germany). The concentration of the cDNA solutions was 50 ng/μL. The diameter (10 ink-jet droplets/position) was about 250 μm and pitch of the spots was about 500 μm. Therefore, the overall dimension of the 10×10 arrays was about 5×5 mm^2. The arrays were printed in the centre of the platforms with the dimensions (18×18 mm^2). Subsequently, the platforms were incubated over night in a closed container in saturated water vapor atmosphere. Next day, the incubated chips can be baked for a defined period, say 1 minute at 80° C.

[2] = system: CYP 450 2B1 (rat); assay: as above; settings: rat liver cDNA, 80 mg/kg daily on 4 consecutive days, normalized treated/control, mean of 10 replicates
Method: as §1

[3] = system: CYP 450 2B1 EST.(rat); assay: as above; settings: rat liver cDNA, 80 mg/kg daily on 4 consecutive days, normalized treated/control, mean of 10 replicates
Method: as §1

[4] = system: CYP 450 2B2 (rat); assay: as above; settings: rat liver cDNA, 80 mg/kg daily on 4 consecutive days, normalized treated/control, mean of 10 replicates
Method: as §1

[5] = system: CYP 450 3A1 (human); assay: as above; settings: rat liver cDNA, 80 mg/kg daily on 4 consecutive days, normalized treated/control, mean of 10 replicates
Method: as §1

[6] = system: CYP 450 3A2 (rat); assay: as above; settings: rat liver cDNA, 80 mg/kg daily on 4 consecutive days, normalized treated/control, mean of 10 replicates
Method: as §1

[7] = system: CYP 450 4A1 (rat); assay: as above; settings: rat liver cDNA, 80 mg/kg daily on 4 consecutive days, normalized treated/control, mean of 10 replicates
Method: as §1

[8] = system: GAPDH (rat); assay: as above; settings: rat liver cDNA, 80 mg/kg daily on 4 consecutive days, normalized treated/control, mean of 10 replicates
Method: as §1

[9] = system: β-actin (rat); assay: as above; settings: rat liver cDNA, 80 mg/kg daily on 4 consecutive days, normalized treated/control, mean of 10 replicates
Method: as §1

[10] = system: cPM (capture perfect match) oligonucleotide; assay: Oligonucleotide microchip hybridization (SNP discrimination), cPM capture spots; assay type: binding; settings: 30 pM analyte, 30 min incubation, room temperature, fluorescence at resonance position
Method: (§2) Sensor platforms (dimensions 18×18 mm2) of the type described with reference to FIG. 2 we first sonicated twice in chlororform (FLUKA, “purum”) and subsequently twice in isopropanol (Merck, “Uvasol”), each 15 min. […] O-xylene was heated to 75° C. […] (stirring). Subsequently, the platforms were washed three times with fresh acetonitrile (Fluka, “HPLC grade”) each for 15 min. Finally the platforms were dried and stored under vacuum. b. Immobilization of Capture Elements
(§3) Two different amino-modified oligonucleotides (capture probes) were printed in a checkerboard-like layout (5×5=25 spots) onto the silanized platforms. […]
(§4) The concentration of the analyte solutions was 30 pM each. f. […] After 30 min of incubation, the platform was washed with 1 ml of HB and a fluorescence image (“PM” in FIG. 9a) was taken in the resonance position of the chip. Subsequently, the bound fluorescence labeled oligonucleotides were removed (stripped) by injection of 2×1 ml of an aqueous 50% urea solution with 2 min of delay between the injections. After additional 2 min the chip was washed by injection of 2×1 ml HB with 2 min delay between the injections and a fluorescence image (“regeneration” in FIG. 9b) was taken in the resonance position of the chip. […] After 30 min of incubation, the platform was again washed with 1 ml of 1B and a fluorescence image (“MM” in FIG. 9c) was taken in the resonance position of the chip. […]

[11] = system: cMM (capture mismatch) oligonucleotide; assay: Oligonucleotide microchip hybridization (SNP discrimination), cMM capture spots; assay type: binding; settings: 30 pM analyte, 30 min incubation, room temperature, fluorescence at resonance position
Method: as §2, §3, §4

[12] = system: cPM and cMM capture oligonucleotides; assay: Oligonucleotide microchip SNP discrimination, cPM versus cMM spots; assay type: binding; settings: 30 pM analyte, 30 min incubation, room temperature
Method: as §2
Two different amino-modified oligonucleotides (capture probes) were printed in a checkerboard-like layout (5×5=25 spots) onto the silanized platforms. A GMS 417 ring-pin arrayer was used for the printing (Genetic Microsystems, Boston, Mass.). The concentration of the oligonucleotides used as capture molecules was 100 nmol/ml. Diameter of the spots was 125 micrometer with 500 micrometer centre-to-centre distance. The 2 oligonucleotides were called cPM (“capture perfect match”) and cMM (“capture mismatch”) and differ only in one base:
cPM and cMM were labeled with an amino group at the 5′ end which enables covalent binding of the oligonucleotides to the epoxy-functionalized platforms. […] Next day the chips were dried and then washed with 1 ml of aqueous 50% urea solution. Alternatively, an aqueous bovine serum albumine solution (BSA, 1 mg/ml) was used. After blocking the chips were flushed with deionized water and then dried with nitrogen flow. c. Detection Set-Up The CCD set-up described in the previous example was used. d. Chip Cartridge The cartridge described in the previous example was used. e. Analytes/Samples […]
The concentration of the analyte solutions was 30 pM each. f. […] After 30 min of incubation, the platform was washed with 1 ml of HB and a fluorescence image (“PM” in FIG. 9a) was taken in the resonance position of the chip. Subsequently, the bound fluorescence labeled oligonucleotides were removed (stripped) by injection of 2×1 ml of an aqueous 50% urea solution with 2 min of delay between the injections. After additional 2 min the chip was washed by injection of 2×1 ml HB with 2 min delay between the injections and a fluorescence image (“regeneration” in FIG. 9b) was taken in the resonance position of the chip. […] After 30 min of incubation, the platform was again washed with 1 ml of 1B and a fluorescence image (“MM” in FIG. 9c) was taken in the resonance position of the chip. […] Data Processing The mean intensity of the 2 different groups of capture spots (cPM and cMM) was calculated for both experiments (incubation of 30 pM PM analyte and 30 pM MM analyte). In addition, the difference of the mean intensity cPM-cMM and the ratio cPM/cMM was calculated. h. […]

Row | Compound | Fold change CYP 450 1A1 (rat) [1] | Fold change CYP 450 2B1 (rat) [2] | Fold change CYP 450 2B1 EST.(rat) [3] | Fold change CYP 450 2B2 (rat) [4] | Fold change CYP 450 3A1 (human) [5] | Fold change CYP 450 3A2 (rat) [6] | Fold change CYP 450 4A1 (rat) [7] | Fold change GAPDH (rat) [8] | Fold change β-actin (rat) [9] | mean intensity, cPM spots [10] | mean intensity, cMM spots [11] | difference of the mean intensity cPM − cMM [12] | ratio cPM/cMM of mean intensity [12]
1 | CCC1(c2ccccc2)C(=O)NC(=O)NC1=O [phenobarbital, sodium salt] | 1.6 | 25 | 16 | 32 | 3.2 | 2.5 | 1.6 | 2.3 | 2.1 |  |  |  | 
2 | Cy5-5′GTGTTAAGGTGT3′ (NTGTTAAGGTGT; 5' {Cy5}, sugars by position, backbone and the base at N not given here) [PM] |  |  |  |  |  |  |  |  |  | 1140 counts | 24 counts | 1116 counts | 48
3 | Cy5-5′GTGTTGAGGTGT3′ (NTGTTGAGGTGT; 5' {Cy5}, sugars by position, backbone and the base at N not given here) [MM] |  |  |  |  |  |  |  |  |  | 704 counts | 2075 counts | −1371 counts | 0.34
